In patent US7217734B2, “Substituted benzopyrans as selective estrogen receptor-beta agonists” (Eli Lilly and Company, priority 2001, dated 2007):

Biological target: T1, ERbeta Receptor (Homo sapiens, UniProt Q92731)
T1 construct: purchased Pan Vera
Test: Competition ER binding assay (3H-Estradiol), ER beta
Settings: ratio of Ki ER alpha to Ki ER beta; Ki from IC50 by Cheng-Prusoff equation
Protocol: The competition ER binding assay was run in a buffer containing 50 mM N-[2-hydroxyethyl]piperazine-N′-[2-ethanesulfonic acid (Hepes) pH 7.5, 1.5 mM EDTA, 150 mM NaCl, 10% glycerol, 1 mg/mL ovalbumin, 5 mM DTT, 0.025 μCi per well of ^3H-Estradiol (NEN #NET517 at 118 Ci/mmol, 1 mCi/mL), and 10 ng/well ERAlpha or ERbeta Receptor (Pan Vera). Competing compounds were added at 10 different concentrations. Non-specific binding was determined in the presence of 1 μM of E2 (17-β Estradiol, Sigma, St. Louis, Mo.). The binding reaction (140 μL) was incubated for 4 hours at room temperature, then 70 μL of cold dextran coated charcoal (DCC) buffer was added to each reaction (DCC buffer was prepared by adding 0.75 g of charcoal [Sigma] and 0.25 g of dextran [Pharmacia] per 50 mL of assay buffer). The incubation plates were mixed for 8 minutes on an orbital shaker at 4° C. and then centrifuged at 3,000 rpm for 10 minutes at 4° C. An aliquot of 120 μl of the mix was transferred to another 96-well, white flat bottom plate (Costar) and 175 μl of Wallac Optiphase Hisafe 3 scintillation fluid was added to each well. The plates were sealed and then shaken vigorously on an orbital shaker. After an incubation of 2.5 hrs, the radioactivity was counted in a Wallac Microbeta counter. […] The Kd for ^3H-Estradiol was determined by saturation binding to ERα and ERβ receptors. The IC50 values for compounds were converted to Ki values using the Cheng-Prusoff equation and the Kd values were determined by saturation binding assay.

T1 sequence (Q92731 whole entry): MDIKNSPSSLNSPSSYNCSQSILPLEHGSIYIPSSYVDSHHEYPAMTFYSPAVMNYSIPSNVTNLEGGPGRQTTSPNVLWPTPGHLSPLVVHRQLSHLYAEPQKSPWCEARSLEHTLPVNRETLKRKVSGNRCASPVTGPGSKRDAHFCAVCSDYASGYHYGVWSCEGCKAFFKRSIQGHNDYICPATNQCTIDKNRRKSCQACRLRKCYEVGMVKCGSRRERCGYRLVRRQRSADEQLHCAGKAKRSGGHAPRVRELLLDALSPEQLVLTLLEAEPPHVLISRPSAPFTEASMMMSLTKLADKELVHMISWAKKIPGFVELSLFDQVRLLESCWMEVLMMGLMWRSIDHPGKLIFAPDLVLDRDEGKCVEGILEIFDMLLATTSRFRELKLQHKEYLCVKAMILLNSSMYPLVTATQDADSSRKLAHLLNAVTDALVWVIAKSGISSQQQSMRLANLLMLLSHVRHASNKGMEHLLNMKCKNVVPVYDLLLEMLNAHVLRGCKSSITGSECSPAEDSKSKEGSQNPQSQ

| Compound | Ki (nM) ER alpha/Ki (nM) ER beta |
| --- | --- |
| CC1(C)CC[C@H]2[C@@H](c3ccc(O)cc3)Oc3ccc(O)cc3[C@H]21 (racemic) [Example 10, (^+)-2-(4-hydroxyphenyl)-6-hydroxy-11,11-dimethyl-cyclopentyl[c]3,4-dihydro-2H-1-benzopyran] | 2.5 |
| Oc1ccc([C@H]2Oc3ccc(F)cc3[C@H]3CCC[C@H]32)cc1 (racemic) [Example 4, (^+)-2-(4-hydroxyphenyl)-6-fluoro-cyclopentyl[c]3,4-dihydro-2H-1-benzopyran] | 4.7 |
| Cc1ccc2c(c1)[C@H]1CCC[C@H]1[C@@H](c1ccc(O)cc1)O2 (racemic) [Example 3, (^+)-2-(4-hydroxyphenyl)-6-methyl-cyclopentyl[c]3,4-dihydro-2H-1-benzopyran] | 1.2 |
| Oc1ccc([C@H]2Oc3ccc(C(F)(F)F)cc3[C@H]3CCC[C@H]32)cc1 (racemic) [Example 2, (^+)-2-(4-hydroxyphenyl)-6-trifluoromethyl-cyclopentyl[c]3,4-dihydro-2H-1-benzopyran] | 1.4 |
| COc1cc(O)cc2c1O[C@H](c1ccc(O)cc1)[C@@H]1CCC[C@H]21 (racemic) [Example 9, (^+)-2-(4-hydroxyphenyl)-6-hydroxy-8-methoxy-cyclopentyl[c]3,4-dihydro-2H-1-benzopyran] | 13 |
| Oc1ccc([C@H]2Oc3ccc(O)cc3[C@H]3CCC[C@H]32)cc1 (racemic) [Example 1, (^+)-2-(4-hydroxyphenyl)-6-hydroxy-cyclopentyl[c]3,4-dihydro-2H-1-benzopyran] | 8.0 |
| Oc1ccc([C@@H]2Oc3ccc(O)cc3[C@H]3CCC[C@H]32)cc1 (racemic) [Example 16, (^+)-2-(4-hydroxyphenyl)-6-hydroxy-cyclopentyl[c]3,4-dihydro-2H-1-benzopyran] | 1.4 |
| CCC1(CC)CC[C@H]2[C@@H](c3ccc(O)cc3)Oc3ccc(O)cc3[C@H]21 (racemic) [Example 11, (^+)-2-(4-hydroxyphenyl)-6-hydroxy-11,11-diethyl-cyclopentyl[c]3,4-dihydro-2H-1-benzopyran] | 1.6 |
| COc1ccc2c(c1)[C@H]1CCC[C@H]1[C@@H](c1ccc(O)cc1)O2 (racemic) [Example 12, (^+)-2-(4-hydroxyphenyl)-6-methoxy-cyclopentyl[c]3,4-dihydro-2H-1-benzopyran] | 2.3 |
| Cc1cc(O)cc2c1O[C@H](c1ccc(O)cc1)[C@@H]1CCC[C@H]21 (racemic) [Example 7, (^+)-2-(4-hydroxyphenyl)-6-hydroxy-8-meth 1-cyclopentyl[c]3,4-dihydro-2H-1-benzopyran] | 5.1 |

Other lines, results leading:

| Ki (nM) ER alpha/Ki (nM) ER beta | Compound |
| --- | --- |
| 1.3 | CC[C@]1(c2ccc(O)cc2)Oc2ccc(O)cc2[C@@H]2CCC[C@@H]21 [Example 29, (^+)-2-ethyl-2-(4-hydroxyphenyl)-6-hydroxy-cyclopentyl[c]3,4-dihydro-2H-1-benzopyran] |
| 1.4 | CC(C)[C@]1(c2ccc(O)cc2)Oc2ccc(O)cc2[C@@H]2CCC[C@@H]21 [Example 30, (+)-2-(1-methylethyl)-2-(4-hydroxyphenyl)-6-hydroxy-cyclopentyl[c]3,4-dihydro-2H-1-benzopyran] |
| 2.0 | Cc1cc2c(cc1O)[C@H]1CCC[C@H]1[C@@H](c1ccc(O)cc1)O2 (racemic) [Example 19, (^+)-2-(4-hydroxyphenyl)-6-hydroxy-7-methyl-cyclopentyl[c]3,4-dihydro-2H-1-benzopyran] |
| 0.6 | Cc1cc2c(cc1O)[C@H]1CCC[C@H]1[C@H](c1ccc(O)cc1)O2 (racemic) [Example 20, (^+)-2-(4-hydroxyphenyl)-6-hydroxy-7-methyl-cyclopentyl[c]3,4-dihydro-2H-1-benzopyran] |
| 4.6 | C[C@]1(c2ccc(O)cc2)Oc2ccc(O)cc2[C@@H]2CCC[C@@H]21 [Example 28, (^+)-2-methyl-2-(4-hydroxyphenyl)-6-hydroxy-cyclopentyl[c]3,4-dihydro-2H-1-benzopyran] |
| 2.6 | Cc1cc([C@@H]2Oc3ccc(O)cc3[C@H]3CCC[C@H]32)ccc1O (racemic) [Example 14, (^+)-2-(4-hydroxy-3-methylphenyl)-6-hydroxy-cyclopentyl[c]3,4-dihydro-2H-1-benzopyran] |
| 11 | Cc1cc(O)ccc1[C@H]1Oc2ccc(O)cc2[C@H]2CCC[C@H]21 (racemic) [Example 15, (^+)-2-(2-methyl-4-hydroxyphenyl)-6-hydroxy-cyclopentyl[c]3,4-dihydro-2H-1-benzopyran] |
| 4.4 | Cc1cc([C@H]2Oc3ccc(O)cc3[C@H]3CCC[C@H]32)ccc1O (racemic) [Example 13, (^+)-2-(4-hydroxy-3-methylphenyl)-6-hydroxy-cyclopentyl[c]3,4-dihydro-2H-1-benzopyran] |
